Data set [1] is described as follows: Solubility in water and physiological saline. The class given is physicochemical. The method, then:
The compound (I) soluble in both water and physiological saline was dissolved in physiological saline to prepare a solution of the compound (I) (1.5 mg/ml) prior to use.
(§1) (1-Ethyl-2-[N-(2-methoxy)benzoyl-N-[(2R)-2-methoxy-3-( 4-octadecylcarbamoyloxy)piperidinocarbonyloxypopoxy]carbonyl]aminomethylpyridinium chloride, molecular weight 860.5) was supplied in powder form by Eisai Co.,Ltd. (Japan). It is soluble in water and saline, and a 1.5 mg/ml solution was prepared with saline immediately before use.

The subject of data set [2] is Slc:ICR mice. In words: Acute toxicity test, single intravenous administration, mice. The class given is in vivo, Mouse. As to conditions: for Acute toxicity (LD₅₀): Mouse, Intravenous Injection, single administration. The method, then:
(§2) A single administration toxicity test was carried out by effecting intravenous injections (medium: physiological saline) to a group consisting of five male and five female 7 to 8-weeks-old Slc:SD rats and a group consisting of five male and five female 7 to 8-weeks-old Slc:ICR mice.

For data set [3], the system named is Large-White pigs. The data set is described as follows: Orthotopic liver transplantation following 8 hour cold preservation in pigs (second description). The class given is in vivo. The method, then: Orthotopic liver transplantations following 8 hour cold preservation were performed. Large-White pigs weighing 35-40 Kg were used after 24 hours starvation. Pigs were randomly divided into 2 groups. In Group 1, the PAF antagonist treatment group, consisting of 9 donors and 9 recipients, the PAF antagonist the compound (I) was given in the solutions (1mg/L) for flush-out and preservation at donor operation. It was also administered into recipients (0.3mg/Kg body weight) as an infusion and given in the solution (1mg/L) for rinsing before reperfusion of the graft (RPF) at recipient operation. Group 2, the untreated control group, consisted of 9 donors and 9 recipients that received the same solutions or intravenous infusion only without the compound (I). The solutions for flush-out and preservation of the graft liver were simplified UW solution in which hydroxyethyl starch was omitted from the original formulation of UW solution described for liver preservation, according to the reports showing that hydroxyethyl starch is not an essential component in UW solution.
Following premedication with ketamine (10mg/Kg i.m.), the ear vein was cannulated and saline perfusion was started. After injection of ketamine (5mg/Kg i.v.) and pancuronium (0.2mg/Kg i.v.), the animals were […]. Anesthesia was maintained by inhalation with 3L oxygen, 4L nitrous oxide and 1.5% ethranne. […] Following intravenous injection of heparine (10,000IU), the subrenal abdominal aorta was cannulated. […] The gallbladder was incised and washed with saline. The liver was harvested and dipped in 4üÄ UW solution bath.
The recipient pigs were anesthesized as described in donor operation. The right carotid artery and the right subclavian vein were then cannulated for blood pressure monitoring and blood sampling and for intravenous fluid infusion, respectively. After laparotomy, the liver was dissected free and removed. During anhepatic period, the portal blood was passively shunted by a tube between the portal vein and the right external jugular vein. […] The graft liver was reperfused with the portal blood after completion of the portal vein anastomosis. The bile duct was drained by external tube fistula. Immediately before the anastomosis of the portal vein, to remove the preservation solution, the graft liver was flushed with 500ml of Ringers lactate containig dextrase (5g%), mannitol (1.25g%) and sodium bicarbonate (0.21g%) as previously described. […] In our operations, the duration between the warm rinsing and RPF was less than 3 miniutes by using the cuff technique in portal vein anastomosis.
Intraoperative fluid infusion was as follows; 500ml of saline containing dextrose (2.5g%) was infused through the ear vein between the begining of the operation and the anhepatic period. In Group 1, The compound (I) (0.3mg/Kg) was mixed in this solution. During the anhepatic period, 500-750ml of saline containing sodium bicarbonate (0.21g%) was rapidly infused to prevent hypotension. Prior to RPF, sodiumu bicarbonate (1.05g) and calcium gluconate (0.1g) were injected intravenously. As a total, 1.5-2L of the fluid was infused during operation without any blood transfusion. Postoperatively, 0.5-1.0L of 5% dextrose solution was infused for the first 12 hours. Sodium bicarbonate was given to correct metabolic acidosis when necessary. No immunosuppressant was administered.
as §1
AKBR was measured at the time of cannulation in the right carotid artery (before), and at 1, 2, 4 and 12 hours after RPF. […]

In data set [4] the test system is porcine liver transplantation model. The data set is described as follows: Porcine liver transplantation model (8 hr cold preservation, sympatric transplantation). The class given is in vivo, swine. On the procedure:
A model was employed in which swine each weighing 30 to 40 kg were used, the livers were extirpated therefrom and preserved at low temperature for 8 hr, and sympatric liver transplantation was carried out. More specifically, the swine were starved for 24 hr, and randomly divided into two groups. Group 1 consisted of 9 donors and 9 recipients, which were treated with the above compound of the present invention. In the surgical operation of the donors, the compound (I) was added to the perfusate and the preservation fluid (1 mg/ℓ). Further, the compound (I) was continuously intravenously administered to the recipients (0.3 mg/kg) and added, in the surgical operation thereof, to the washing fluid for washing away the preservation fluid from the interior of each of the transplant livers (1 mg/ℓ).
Group 2 as a control group not treated with the compound of the present invention consisted of 9 donors and 9 recipients, for which the same continuous intravenous administration was carried out with the use of the same fluids as for Group 1, except that the compound (I) was not added thereto. A University of Wisconsin (hereinafter referred to as "UW") fluid prepared in a simplified manner was used for the perfusion and preservation of the transplant livers. The fluid was one obtained by omitting hydroxyethylstarch from the composition of the UW fluid customarily employed in the preservation of livers.
For each of the donors, premedication with ketamine (10 mg/kg) was conducted, and the auricular vein was cannulated to initiate the administration of physiological saline. Ketamine (5 mg/kg, i.v.) and pancronium (0.2 mg/kg, i.v.) were administered, and thereafter the airway was secured. The donor under surgical operation was kept anesthetized by inhalation of 3 ℓ of oxygen, 4 ℓ of laughing gas and 1.5% ethrane.
Heparin (10,000 IU) was intravenously injected, and thereafter the subrenal ventral aorta was cannulated. […] The gallbladder was dissected, and washed with physiological saline. The resultant liver was taken out, and immersed in a UW fluid bath. […] The transplant liver was preserved at 4°C for 8 hr.
Each of the recipient swine was also anesthetized in the same manner as described above with respect to the surgical operation of the donors. The right carotid artery and the right subclavian vein were cannulated for blood pressure monitoring and blood sampling and for intravenous injection, respectively. The abdomen was cut open, and the liver was detached and removed. During the ahepatic period, the blood from the portal vein was passively bypassed through a shunt tube inserted into the portal vein and the right external jugular vein. […] After the completion of the anastomosis with the portal vein, the transplant liver was reperfused with the blood from the portal vein.
The bile duct was drained outside the body through a biliary external fistula tube.
Just before the anastomosis with the portal vein, the transplant liver was perfused with lactated Ringer's solution (500 ml) containing dextrose (5 wt.%), mannitol (1.25 wt.%) and sodium bicarbonate (0.21 wt.%) to thereby remove the preservation fluid. The washing fluid was held at 30 to 37°C. Within 3 min of the hot washing, the transplant liver was reperfused.
During the ahepatic period starting with the initiation of the surgical operation, physiological saline (500 ml) containing dextrose (2.5 wt.%) was administered through the auricular vein. For the Group 1, the compound (I) (0.3 mg/kg) was mixed in the saline solution. During the ahepatic period, 500 to 750 ml of physiological saline containing sodium bicarbonate (0.21 wt.%) was rapidly injected in order to prevent blood pressure lowering. Sodium bicarbonate (1.05 g) and calcium gluconate (0.1 g) were intravenously administered prior to the reperfusion of the transplant liver. During the surgical operation, no transfusion was conducted, and a total of 1.5 to 2.0 ℓ of infusion solution was administered. […]

Data set [5] concerns human platelets. As to conditions: reported value; read-out: IC50 value, inhibition of aggregation of human platelets induced by PAF; cited from earlier work.
Data set [6] deals with Slc:SD rats. The data set is described as follows: Acute toxicity test, single intravenous administration, rats. The class given is in vivo, Rat. As to conditions: for Acute toxicity (LD₅₀): Rat, Intravenous Injection, single administration. The method, then: as §2
Data set [7] relates to rat liver transplantation. As to conditions: livers ischemic for 60 min, untreated group 0%, cited from earlier work.
Setting [8] is: Group 1, 4 hr after the reperfusion (p<0.05).

Where “and” joins values, the source holds several entries; their conditions need not be identical. Equal entries are not always repeated. Where two headings read alike, the source gives them in different places.

As to `CCCCCCCCCCCCCCCCCCNC(=O)OC1CCN(C(=O)OCC(COC(=O)N(Cc2cccc[n+]2CC)C(=O)c2ccccc2OC)OC)CC1.[Cl-]` (stereo not drawn) [compound (I), 1-ethyl-2-[N-(2-methoxy)benzoyl-N-{2-methoxy-3-(4-octadecylcarbamoyloxy)piperidinocarbonyloxypropoxy}carbonyl]aminomethylpyridinium chloride], the solubility result in data set [1] was “soluble”. In addition, the “Acute toxicity (LD₅₀)” value worked out at 50.0 mg/kg in data set [2] (Female), 46.8 mg/kg in data set [2] (Male), 22.8 mg/kg in data set [6] (Female) and 18.2 mg/kg in data set [6] (Male). In addition, the “LD₅₀ values relative to the clinical dose in intravenous injection” value in data set [2] (mouse LD₅₀ values of Table 1) and in data set [6] (rat LD₅₀ values of Table 1) was at least 50 times each time. For the same compound, the hematocrit values entry in data set [3] (Group 1 (both groups alike), course after RPF) was “increased markedly at 2 hours after RPF, and then gradually decreased”; in data set [4] (Group 1 (both groups alike), course after the reperfusion), “rapidly increased 2 hr after the reperfusion, and gradually decreased thereafter”. The “survival of all the 9 pigs” value in data set [3] (Group 1 (treated)) is listed as “more than 4 days”. For the same compound, the platelet count result was “slightly increased at 2 hours” in data set [3] (Group 1, at 2 hours after RPF); 309.8 ± 21.6 ×10³/µℓ in data set [4] (Group 1, 2 hr later); 227.8 ± 13.4 ×10³/µℓ in data set [4] (Group 1, 12 hr later); 294.4 ± 19.8 ×10³/µℓ in data set [4] (Group 1, prior value). Besides, the “lactate level in arterial blood” value in data set [3] (Group 1, at 12 hours after RPF) was “restored to the primary levels”. The “Histological examination by light microscopy (HE stain): necrosis of hepatocytes, exudate of inflammatory cells, microvesicular changes” value in data set [3] (Group 1, reperfused liver at 1 hour after RPF) was “rarely seen”. Moreover, the “content of glycogen in hepatocytes (PAS staining)” value in data set [3] (Group 1 versus Group 2, at 1 hour after RPF) is recorded as “lesser content of glycogen in hepatocytes in Group 2 than in Group 1”. In addition, the AKBR entry in data set [3] (Group 1 versus Group 2, at 4 hours after RPF) was “tendency to be higher in Group 1 than in Group 2, though not significant”; in data set [4] (Group 1, 12 hr after the reperfusion, significantly higher than Group 2 (p<0.05)) it was “recovered to the normal condition level”; in data set [4] (Group 1, during 4 hr after the reperfusion, compared with Group 2) it was “only slightly higher than that of the Group 2”. Besides, the Survival in data set [3] (individual pigs of Group 1 (n=9) (treated): 1mg/L in flush-out, preservation and rinsing solutions, 0.3mg/Kg infusion to recipients, 0.3 mg/kg) was >7 POD (4×) and 4 POD and 5 POD and 6 POD (2×) and 7 POD. The “survival of all of the 9 swine” value in data set [4] (Group 1 (treated group)) is reported as “at least 4 days”. For the same compound, the “12-hr or longer survinal rate” value in data set [4] (Group 1, 9/9, Group 2 (untreated) 56% (5/9)) is 100%. For the same compound, the “lactate level of arterial blood” value in data set [4] (Group 1, 2 hr after the reperfusion) is 9.9 ± 1.0 mmol/L; in data set [4] (setting [8]), 6.2 ± 1.1 mmol/L; in data set [4] (Group 1, 12 hr after the reperfusion), “recovered to the initial level”. Moreover, the leukocyte count was determined as 14.3 ± 1.8 ×10³/µℓ in data set [4] (Group 1, 2 hr later (p<0.01 vs Group 2)) and 11.5 ± 1.1 ×10³/µℓ in data set [4] (Group 1, prior value). In data set [4] (setting [8]), this compound showed a GOT level of 712 ± 97 U/ℓ. This compound showed a GPT level in data set [4] (setting [8]) of 65 ± 4 U/ℓ. Also, the “Histologic study (optical microscope): hepatocyte necroses, stagnation of hepatosinusoidal inflammatory cells, vacuolar degeneration” value in data set [4] (Group 1, reperfused liver 1 hr after the reperfusion) was “little observed”. Further, the “glycogen content of the hepatocytes (staining)” value in data set [4] (Group 1 versus Group 2, 1 hr after the reperfusion) was “the glycogen content of the hepatocytes in the Group 2 was smaller than that in the Group 1”. Further, the “Period of Survival” value in data set [4] (individual recipient swine of Group 1 (treated): 1 mg/ℓ in perfusate, preservation fluid and washing fluid, 0.3 mg/kg i.v. to recipients, 0.3 mg/kg) was 7 days or more (4×) and 4 days and 5 days and 6 days (2×) and 7 days. In addition, the IC50 in data set [5] was 0.66 nM.

For `COC1=C(OC)C(=O)C(C/C=C(\C)CC/C=C(\C)CC/C=C(\C)CC/C=C(\C)CC/C=C(\C)CC/C=C(\C)CC/C=C(\C)CC/C=C(\C)CC/C=C(\C)CCC=C(C)C)=C(C)C1=O` [coenzyme Q₁₀], the one-week survival rate result in data set [7] (10 mg/kg intravenously to the donor rats prior to the operation) and in data set [7] (10 mg/kg intravenously to the recipient rats prior to the operation) was “about 50%” in each case.

Usually IC50 stands for the concentration needed to halve the response being measured.
